Here are results for 61 compounds from patent US20140213538A1, “LYSOPHOSPHATIDIC ACID RECEPTOR ANTAGONISTS” (InterMune, Inc., priority 2013, published 2014).

The target in the assay is T1, LPA/S1P GPCR of interest (Homo sapiens, UniProt Q92633).
T1 construct: host or cells: CHO
As to the kind of experiment: Beta-Arrestin based assay (PathHunter). The format is cell-based. The procedure:
CMV promoter based DNA constructs expressing a fusion of the LPA/S1P GPCR of interest and ProLink™ tag were used to transfect EA Parental™ CHO cells (DiscoverX, Fremont, Calif.) using a FuGENE® transfection kit (Roche). Beta-Arrestin based assays were conducted 24-48 hrs post transfection using PathHunter® assay kits (DiscoverX, Fremont, Calif.). Agonist and antagonist assays were performed in quadruplicate in white 384 well plates. End point luminescence data were plotted and fit to a 4 parameter logistic function to obtain IC50 values. For antagonist assays, an IC80 concentration of agonist (LPA) equal to 0.5 micromolar was used.

T1 sequence (Q92633 whole entry): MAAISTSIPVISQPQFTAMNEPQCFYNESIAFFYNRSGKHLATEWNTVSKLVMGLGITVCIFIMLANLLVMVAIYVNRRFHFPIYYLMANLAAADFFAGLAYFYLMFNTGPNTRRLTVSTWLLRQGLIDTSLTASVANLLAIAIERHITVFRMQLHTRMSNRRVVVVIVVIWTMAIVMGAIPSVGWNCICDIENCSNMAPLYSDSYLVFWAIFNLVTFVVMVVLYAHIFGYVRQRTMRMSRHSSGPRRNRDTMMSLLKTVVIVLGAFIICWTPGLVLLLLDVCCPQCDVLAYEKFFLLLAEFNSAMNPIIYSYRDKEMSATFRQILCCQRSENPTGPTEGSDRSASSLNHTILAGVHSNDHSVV

The EC50 is the concentration at which the effect is half-maximal. A low value points to a more potent agent. As for `C[C@@H](NC(=O)C#Cc1ccc(-c2cnn(C)c2NC(=O)O[C@H](C)c2ccccc2)cc1)C(=O)O` [IT399], the EC50 is > 500 nM.
Next, `Cc1nsc(-c2cc3sc(-c4ccc(C5(C(=O)O)CC5)cc4C(F)(F)F)cc3s2)c1NC(=O)O[C@H](C)c1ccccc1` [IT248]: > 500 nM.
Next, `COc1cc(-c2cc3sc(-c4snc(C)c4NC(=O)O[C@H](C)c4ccccc4)cc3s2)ccc1CC(=O)O` [IT219]: > 500 nM.
Next, `C[C@@H](OC(=O)Nc1c(-c2ccc(-c3ncc(C4(C(=O)O)CC4)s3)cc2)nnn1C)c1ccccc1` [IT239]: > 500 nM; `C[C@@H](OC(=O)Nc1c(-c2ccc(C#CC(=O)N[C@H](C(=O)O)c3ccccc3)cc2)cnn1C)c1ccccc1` [IT402]: > 500 nM.
Regarding `C[C@@H](OC(=O)Nc1c(-c2cc3sc(-c4ccc(-c5nnc(C6(C(=O)O)CC6)o5)cc4)cc3s2)nnn1C)c1ccccc1` [IT218], the concentration for a half-maximal effect (EC50) is > 500 nM.
With `C[C@@H](OC(=O)Nc1c(-c2ccc(C#CC(=O)O)cc2)cnn1C)c1ccccc1` [IT371] the figure was > 500 nM.
With `C[C@@H](OC(=O)Nc1c(-c2ccc(C#CC(=O)Nc3cccc(C(=O)O)c3)cc2)cnn1C)c1ccccc1` [IT429] the figure was > 500 nM; with `COc1cc(-c2cc3sc(-c4nnn(C)c4NC(=O)O[C@H](C)c4ccccc4)cc3s2)c(OC)cc1CC(=O)O` [IT350], > 500 nM; with `C[C@@H](OC(=O)Nc1c(-c2cc3sc(-c4ccc(C5(C(=O)O)CC5)c(S(C)(=O)=O)c4)cc3s2)cnn1C)c1ccccc1` [IT441], > 500 nM.
Next, `C[C@@H](OC(=O)Nc1c(-c2cc3sc(-c4ccc(-c5nnc(C6(C(=O)O)CC6)s5)cc4)cc3s2)nnn1C)c1ccccc1` [IT288]: 50 to 500 nM.
Compound `C[C@@H](OC(=O)Nc1c(-c2cc3sc(-c4ccc(C5(C(=O)O)CC5)nc4)cc3s2)cnn1C)c1ccccc1` [IT269] came in with a concentration giving a half-maximal response (EC50) of 50 to 500 nM.
With `COc1cc(-c2cc3sc(-c4snc(C)c4NC(=O)O[C@H](C)c4ccccc4)cc3s2)c(OC)cc1CC(=O)O` [IT351] the figure was > 500 nM.
With `COc1cc(-c2cc3sc(-c4cnn(C)c4NC(=O)O[C@H](C)c4ccccc4)cc3s2)cnc1C1(C(=O)O)CC1` [IT275] the figure was 50 to 500 nM; with `Cc1nsc(-c2ccc(-c3nnc(C4(C(=O)O)CC4)o3)cc2)c1NC(=O)O[C@H](C)c1ccccc1` [IT176], > 500 nM.
For the compound `C[C@@H](OC(=O)Nc1c(-c2cc3sc(-c4cc(F)c(Oc5ncccc5C(=O)O)c(F)c4)cc3s2)cnn1C)c1ccccc1` [IT470], the EC50 is < 50 nM.
Next, `Cc1nsc(-c2cc3sc(-c4ccc(C5(C(=O)O)CC5)cc4Cl)cc3s2)c1NC(=O)O[C@H](C)c1ccccc1` [IT391]: 50 to 500 nM; `Cc1nsc(-c2cc3sc(-c4ccc5[nH]c(C6(C(=O)O)CC6)nc5c4)cc3s2)c1NC(=O)O[C@H](C)c1ccccc1` [IT421]: > 500 nM; `C[C@@H](OC(=O)Nc1c(-c2cc3sc(-c4ccc(CC(=O)O)nc4)cc3s2)nnn1C)c1ccccc1` [IT215]: 50 to 500 nM.
Next, `C[C@@H](OC(=O)Nc1c(-c2cc3sc(-c4ccc(C5(C(=O)O)CC5)c(C(F)(F)F)c4)cc3s2)cnn1C)c1ccccc1` [IT379]: 50 to 500 nM.
With `Cc1nsc(-c2ccc3c(c2)CCCc2cc(CC(=O)O)ccc2-3)c1NC(=O)O[C@H](C)c1ccccc1` [IT225] the figure was 50 to 500 nM.
As to `C[C@@H](OC(=O)Nc1c(-c2ccc(-c3cnc(C4(C(=O)O)CC4)s3)cc2)nnn1C)c1ccccc1` [IT278], the EC50 lay in the range of 50 to 500 nM.
With `C[C@@H](OC(=O)Nc1c(-c2cc3sc(-c4ccc(C5(C(=O)O)CC5)c5ccccc45)cc3s2)nnn1C)c1ccccc1` [IT321] the figure was 50 to 500 nM; with `COc1cc(C2(C(=O)O)CC2)ccc1-c1cc2sc(-c3snc(C)c3NC(=O)O[C@H](C)c3ccccc3)cc2s1` [IT360], > 500 nM.
Take `C[C@@H](OC(=O)Nc1c(-c2cc3sc(-c4ccc5scc(C6(C(=O)O)CC6)c5c4)cc3s2)nnn1C)c1ccccc1` [IT372]: the EC50 was > 500 nM.
Turning to `Cc1noc(-c2ccc(-c3ccc(Oc4c(C(=O)O)ncn4C)cc3)cc2)c1NC(=O)O[C@H](C)c1ccccc1` [IT444], the EC50 is < 50 nM.
With `C[C@@H](OC(=O)Nc1c(-c2cc3sc(-c4cc(F)c(CC(=O)O)cc4F)cc3s2)cnn1C)c1ccccc1` [IT327] the figure was 50 to 500 nM; with `CC(C)[C@@H](NC(=O)C#Cc1ccc(-c2cnn(C)c2NC(=O)O[C@H](C)c2ccccc2)cc1)C(=O)O` [IT403], > 500 nM; with `Cc1noc(-c2ccc(-c3ccc(OC(C)C(=O)O)cc3)cc2)c1NC(=O)O[C@H](C)c1ccccc1` (single isomer, unassigned) [IT256], < 50 nM.
For the compound `Cc1nsc(-c2ccc(-c3ncc(C4(C(=O)O)CC4)s3)cc2)c1NC(=O)O[C@H](C)c1ccccc1` [IT210], the EC50 was > 500 nM.
With `Cc1nsc(-c2cc3sc(-c4ccc(C5(C(=O)O)CC5)c(F)c4)cc3s2)c1NC(=O)O[C@H](C)c1ccccc1` [IT297] the figure was < 50 nM; with `COc1cc(CC(=O)O)ccc1-c1cc2sc(-c3snc(C)c3NC(=O)O[C@H](C)c3ccccc3)cc2s1` [IT163], > 500 nM.
With `Cc1cc(-c2cc3sc(-c4snc(C)c4NC(=O)O[C@H](C)c4ccccc4)cc3s2)c(F)cc1C1(C(=O)O)CC1` [IT338] the figure was 50 to 500 nM; with `COc1cc(C2(C(=O)O)CC2)c(OC)cc1-c1cc2sc(-c3nnn(C)c3NC(=O)O[C@H](C)c3ccccc3)cc2s1` [IT415], > 500 nM; with `Cc1nsc(-c2ccc(-c3ccc(C4(C(=O)O)CC4)s3)cc2)c1NC(=O)O[C@H](C)c1ccccc1` [IT237], 50 to 500 nM.
Next, `COc1cc(-c2cc3sc(-c4cnn(C)c4NC(=O)O[C@H](C)c4ccccc4)cc3s2)ccc1C1(C(=O)O)CC1` [IT329]: 50 to 500 nM; `Cc1nsc(-c2cc3sc(-c4ccc(CC(=O)O)cc4Cl)cc3s2)c1NC(=O)O[C@H](C)c1ccccc1` [IT161]: > 500 nM.
`C[C@@H](OC(=O)Nc1c(-c2cc3sc(-c4ccc(C5(C(=O)O)CC5)cc4C(F)(F)F)cc3s2)cnn1C)c1ccccc1` [IT247] displayed an EC50 of 50 to 500 nM.
With `Cc1cc(CC(=O)O)c(F)cc1-c1cc2sc(-c3cnn(C)c3NC(=O)O[C@H](C)c3ccccc3)cc2s1` [IT251] the figure was 50 to 500 nM; with `COc1cc(-c2cc3sc(-c4snc(C)c4NC(=O)O[C@H](C)c4ccccc4)cc3s2)ccc1C1(C(=O)O)CC1` [IT331], 50 to 500 nM; with `Cc1cc(-c2cc3sc(-c4cnn(C)c4NC(=O)O[C@H](C)c4ccccc4)cc3s2)c(F)cc1CC(=O)O` [IT243], > 500 nM.
With `Cc1nsc(-c2cc3sc(-c4ccc(-c5nnc(CC(=O)O)o5)cc4)cc3s2)c1NC(=O)O[C@H](C)c1ccccc1` [IT207] the figure was > 500 nM; with `C[C@@H](OC(=O)Nc1c(-c2ccc(-c3nnc(C4(C(=O)O)CC4)s3)cc2)nnn1C)c1ccccc1` [IT208], > 500 nM.
Next, `C[C@@H](OC(=O)Nc1c(-c2cc3sc(-c4ccc(CC(=O)O)c5ccccc45)cc3s2)cnn1C)c1ccccc1` [IT319]: > 500 nM.
`COc1cc(-c2cc3sc(-c4nnn(C)c4NC(=O)O[C@H](C)c4ccccc4)cc3s2)ccc1CC(=O)O` [IT220] returned an EC50 of 50 to 500 nM.
With `C[C@@H](NC(=O)Nc1c(C#Cc2cc3sc(C4(C(=O)O)CC4)cc3s2)cnn1C)c1ccccc1` [IT109] the figure was < 50 nM; with `Cc1noc(-c2ccc3c(c2)CCCc2cc(CC(=O)O)ccc2-3)c1NC(=O)O[C@H](C)c1ccccc1` [IT280], < 50 nM; with `Cc1noc(-c2ccc(-c3ccc(Oc4ccc(C(=O)O)s4)cc3)cc2)c1NC(=O)O[C@H](C)c1ccccc1` [IT409], 50 to 500 nM.
Next, `C[C@@H](OC(=O)Nc1c(-c2cc3sc(-c4ccc(C5(C(=O)O)CC5)cc4OC(F)(F)F)cc3s2)nnn1C)c1ccccc1` [IT386]: 50 to 500 nM; `Cc1nsc(-c2cc3sc(-c4ccc(CC(=O)O)c(C(F)(F)F)c4)cc3s2)c1NC(=O)O[C@H](C)c1ccccc1` [IT204]: > 500 nM.
With `Cc1noc(-c2ccc(-c3ccc(Oc4cccc(C(=O)O)c4)cc3)cc2)c1NC(=O)O[C@H](C)c1ccccc1` [IT356] the figure was 50 to 500 nM; with `Cc1noc(-c2ccc(-c3ccc(OC(C)C(=O)O)cc3)cc2)c1NC(=O)O[C@H](C)c1ccccc1` (single isomer, unassigned) [IT238], 50 to 500 nM.
`Cc1cc(-c2cc3sc(-c4snc(C)c4NC(=O)O[C@H](C)c4ccccc4)cc3s2)ccc1CC(=O)O` [IT292]: the EC50 is > 500 nM.
Turning to `Cc1cc(C2(C(=O)O)CC2)ccc1-c1cc2sc(-c3snc(C)c3NC(=O)O[C@H](C)c3ccccc3)cc2s1` [IT361], the EC50 was < 50 nM.
Next, `C[C@@H](OC(=O)Nc1c(-c2cc3sc(-c4ccc5c(CC(=O)O)c[nH]c5c4)cc3s2)nnn1C)c1ccccc1` [IT378]: > 500 nM.
Next, `Cc1noc(-c2ccc(-c3ccc(Oc4nnn(C)c4C(=O)O)cc3)cc2)c1NC(=O)O[C@H](C)c1ccccc1` [IT471]: 50 to 500 nM; `C[C@@H](OC(=O)Nc1c(-c2ccc(-c3ccc(OC(C)(C)C(=O)O)cc3)cc2)oc2ccccc12)c1ccccc1` [IT508]: 50 to 500 nM.
Next, `C[C@@H](OC(=O)Nc1c(-c2cc3sc(-c4cnc(C5(C(=O)O)CC5)s4)cc3s2)cnn1C)c1ccccc1` [IT249]: 50 to 500 nM; `C[C@@H](OC(=O)Nc1c(-c2cc3sc(-c4ccc(-c5nnc(C6(C(=O)O)CC6)s5)cc4)cc3s2)cnn1C)c1ccccc1` [IT287]: > 500 nM.
As for `Cc1nsc(-c2cc3sc(-c4ccc5scc(C6(C(=O)O)CC6)c5c4)cc3s2)c1NC(=O)O[C@H](C)c1ccccc1` [IT373], the EC50 was > 500 nM.
With `Cc1nsc(-c2cc3sc(-c4ccc(C5(C(=O)O)CC5)c(Cl)c4)cc3s2)c1NC(=O)O[C@H](C)c1ccccc1` [IT267] the figure was 50 to 500 nM.
